Earlier results, collected in US10441617B2, “Breeding, production, processing and use of medical cannabis” (priority 2013, dated 2019).
Read-outs that look alike come from different tables or passages of the source.

What was measured:
[1] = target: GPR55 (Homo sapiens, UniProt Q9Y2T6)
[2] = CBD 1-10 mg/kg IP over 21 days with equivalent doses of delta-9-THC
[3] = target: cannabinoid receptor CB1 (Homo sapiens, UniProt P21554)
[4] = target: T1, 5-HT1A receptor (Homo sapiens, UniProt P08908)
T1 sequence (P08908 1-422): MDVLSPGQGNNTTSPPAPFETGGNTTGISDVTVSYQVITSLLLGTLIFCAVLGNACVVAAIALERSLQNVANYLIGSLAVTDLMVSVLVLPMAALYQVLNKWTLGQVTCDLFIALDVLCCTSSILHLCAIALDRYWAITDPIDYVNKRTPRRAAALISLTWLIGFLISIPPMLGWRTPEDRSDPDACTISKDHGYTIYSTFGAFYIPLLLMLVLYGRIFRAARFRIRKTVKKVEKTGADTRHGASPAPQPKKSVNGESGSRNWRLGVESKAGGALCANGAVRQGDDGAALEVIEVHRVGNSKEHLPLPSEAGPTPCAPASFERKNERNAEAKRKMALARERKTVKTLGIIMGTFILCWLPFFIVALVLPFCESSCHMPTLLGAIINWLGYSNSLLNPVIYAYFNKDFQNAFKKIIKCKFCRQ

[5] = tested on: aggressive human breast cancer cells; settings: in vitro
[6] = target: CB2 receptor (Homo sapiens, UniProt P34972)
[7] = tested on: Mu and Delta opioid receptor sites
[8] = tested on: α2-adrenergic receptor

cannabinoid receptor CB1, sequence (P21554 whole entry): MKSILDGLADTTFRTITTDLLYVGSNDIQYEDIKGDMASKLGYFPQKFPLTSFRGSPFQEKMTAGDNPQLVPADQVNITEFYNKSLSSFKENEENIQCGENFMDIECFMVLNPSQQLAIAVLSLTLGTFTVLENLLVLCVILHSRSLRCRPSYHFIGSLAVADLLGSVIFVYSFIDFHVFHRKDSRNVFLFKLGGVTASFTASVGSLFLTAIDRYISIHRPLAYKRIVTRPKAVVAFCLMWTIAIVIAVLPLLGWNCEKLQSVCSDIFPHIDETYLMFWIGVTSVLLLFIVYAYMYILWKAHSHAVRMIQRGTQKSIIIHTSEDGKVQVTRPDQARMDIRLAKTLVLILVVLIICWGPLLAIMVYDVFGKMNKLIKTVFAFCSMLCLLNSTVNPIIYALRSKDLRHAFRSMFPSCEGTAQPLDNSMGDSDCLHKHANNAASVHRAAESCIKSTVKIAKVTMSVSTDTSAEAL
CB2 receptor, sequence (P34972 whole entry): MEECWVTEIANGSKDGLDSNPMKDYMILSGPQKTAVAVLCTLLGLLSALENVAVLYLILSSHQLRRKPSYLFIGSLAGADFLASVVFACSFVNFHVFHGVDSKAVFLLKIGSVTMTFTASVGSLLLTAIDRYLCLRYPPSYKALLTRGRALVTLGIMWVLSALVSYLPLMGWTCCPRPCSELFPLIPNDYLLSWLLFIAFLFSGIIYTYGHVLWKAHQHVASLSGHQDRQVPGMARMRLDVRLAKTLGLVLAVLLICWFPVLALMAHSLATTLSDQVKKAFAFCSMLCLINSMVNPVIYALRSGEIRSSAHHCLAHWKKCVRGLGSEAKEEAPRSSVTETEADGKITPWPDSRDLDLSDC
GPR55, sequence (Q9Y2T6 whole entry, species assumed): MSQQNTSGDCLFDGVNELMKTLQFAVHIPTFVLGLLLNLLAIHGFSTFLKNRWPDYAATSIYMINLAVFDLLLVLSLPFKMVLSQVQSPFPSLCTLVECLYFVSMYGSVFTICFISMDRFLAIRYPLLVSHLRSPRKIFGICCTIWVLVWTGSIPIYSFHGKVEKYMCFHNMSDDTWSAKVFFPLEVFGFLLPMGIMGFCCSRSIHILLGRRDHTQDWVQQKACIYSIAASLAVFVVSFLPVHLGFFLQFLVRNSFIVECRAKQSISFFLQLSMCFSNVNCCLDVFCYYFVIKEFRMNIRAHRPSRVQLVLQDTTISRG

Structure (SMILES)	Activity at CB1 receptor [3]	Activity at 5-HT1A receptor [4]	Activity at CB2 receptor [6]	further results
C=C(C)[C@@H]1CCC(C)=C[C@H]1c1c(O)cc(CCCCC)cc1O [CBD, Cannabidiol]	no affinity	5-HT1A receptor agonist	no affinity	Activity at GPR55 [1]: antagonist; Behavioral effects of delta-9-THC [2]: augmented the anxiogenic and locomotor suppressant effects and social interaction deficits; Blood and brain levels of delta-9-THC [2]: increased blood and brain levels; Growth of aggressive human breast cancer cells [5]: reduces growth; Activity at Mu and Delta opioid receptor sites [7]: allosteric modulator; Effect of CBD on the effects of delta-9-THC (ratio of CBD/delta-9-THC 1.8): enhanced the effects of delta-9-THC; Effect of CBD on the effects of delta-9-THC (ratio of CBD/delta-9-THC around 8.1): antagonistic effects
CCCCCc1cc(O)c(C/C=C(\C)CCC=C(C)C)c(O)c1 [CBG, Cannabigerol]	low affinity CB1 receptor antagonist	moderate affinity 5-HT1A receptor antagonist	binds to the CB2 receptor	Activity at α2-adrenergic receptor [8]: high affinity α2-adrenergic receptor agonist
CCCCCc1cc(O)c2c(c1)OC(C)(C)c1ccc(C)cc1-2 [CBN, Cannabinol]	weak agonist		weak agonist	
CCCCCc1cc(O)c2c(c1)OC(C)(C)[C@@H]1CCC(C)=CC21 (stereo partly drawn) [THC, delta-9-tetrahydrocannabinol]			partial agonist activity	
CCCc1cc(O)c2c(c1)OC(C)(C)[C@@H]1CCC(C)=C[C@@H]21 [THCV, Tetrahydrocannabivarin]	CB1 receptor antagonist			
